From article PMC9005681, “Use of AD Informer Set compounds to explore validity of novel targets in Alzheimer's disease pathology” (Alzheimer's & Dementia : Translational Research & Clinical …, 2022)

Tests used:
[1] = biological target: T1, cloned human or rodent CNS receptors, channels, and transporters (PDSP panel) (Homo sapiens, UniProt P25100); test: PDSP GPCR panel primary binding assays at 10 μM; settings: primary assay
T1 construct: expressed in transfected cells
T1 sequence (P25100 1-572): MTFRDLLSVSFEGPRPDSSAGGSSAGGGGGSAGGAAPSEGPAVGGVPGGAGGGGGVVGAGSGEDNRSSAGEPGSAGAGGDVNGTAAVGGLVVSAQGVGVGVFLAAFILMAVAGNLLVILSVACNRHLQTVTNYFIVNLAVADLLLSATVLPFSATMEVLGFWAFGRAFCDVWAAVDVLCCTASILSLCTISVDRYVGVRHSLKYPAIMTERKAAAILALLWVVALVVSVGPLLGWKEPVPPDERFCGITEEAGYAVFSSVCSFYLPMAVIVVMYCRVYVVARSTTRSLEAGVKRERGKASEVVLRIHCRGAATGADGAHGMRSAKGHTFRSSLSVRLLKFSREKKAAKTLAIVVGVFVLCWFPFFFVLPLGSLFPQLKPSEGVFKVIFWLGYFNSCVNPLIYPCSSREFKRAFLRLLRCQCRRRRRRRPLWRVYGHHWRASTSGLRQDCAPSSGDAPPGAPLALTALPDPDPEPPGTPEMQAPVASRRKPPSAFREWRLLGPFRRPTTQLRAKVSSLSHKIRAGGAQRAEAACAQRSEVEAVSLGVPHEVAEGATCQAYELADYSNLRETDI
Protocol: (§1) GPCR panel: Screening against the receptors within the PDSP panel offers an assessment of off-target pharmacological activity at cloned human or rodent CNS receptors, channels, and transporters that could confound CNS-related phenotypes. A total of 46–47 primary binding assays were run in quadruplicate on these compounds at 10 μM, with follow-up secondary binding assays in 11-point dose-response in triplicate for select compounds versus select receptors. Secondary binding assays were executed for all receptors where test compound displaced an average of >50% of radio-labeled standard ligand. As an exception, no secondary assays were carried out for H3, PBR, or GABAA. […]

[2] = biological target: T2, cloned human or rodent CNS receptors, channels, and transporters (PDSP panel) (Homo sapiens, UniProt P25021); test: PDSP GPCR panel primary binding assays at 10 μM; settings: primary assay
T2 construct: expressed in transfected cells
T2 sequence (P25021 whole entry): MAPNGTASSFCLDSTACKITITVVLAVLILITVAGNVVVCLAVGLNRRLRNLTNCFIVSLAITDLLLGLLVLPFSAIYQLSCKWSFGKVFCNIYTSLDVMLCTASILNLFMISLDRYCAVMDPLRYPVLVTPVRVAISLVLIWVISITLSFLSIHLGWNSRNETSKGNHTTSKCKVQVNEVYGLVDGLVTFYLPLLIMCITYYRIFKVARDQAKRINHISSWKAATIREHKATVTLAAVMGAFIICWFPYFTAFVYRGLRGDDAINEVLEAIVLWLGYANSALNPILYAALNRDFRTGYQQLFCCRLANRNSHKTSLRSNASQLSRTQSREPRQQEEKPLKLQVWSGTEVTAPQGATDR
Protocol: as §1

[3] = biological target: T3, cloned human or rodent CNS receptors, channels, and transporters (PDSP panel) (Homo sapiens, UniProt P28566); test: PDSP GPCR panel primary binding assays at 10 μM; settings: primary assay
T3 construct: expressed in transfected cells
T3 sequence (P28566 whole entry): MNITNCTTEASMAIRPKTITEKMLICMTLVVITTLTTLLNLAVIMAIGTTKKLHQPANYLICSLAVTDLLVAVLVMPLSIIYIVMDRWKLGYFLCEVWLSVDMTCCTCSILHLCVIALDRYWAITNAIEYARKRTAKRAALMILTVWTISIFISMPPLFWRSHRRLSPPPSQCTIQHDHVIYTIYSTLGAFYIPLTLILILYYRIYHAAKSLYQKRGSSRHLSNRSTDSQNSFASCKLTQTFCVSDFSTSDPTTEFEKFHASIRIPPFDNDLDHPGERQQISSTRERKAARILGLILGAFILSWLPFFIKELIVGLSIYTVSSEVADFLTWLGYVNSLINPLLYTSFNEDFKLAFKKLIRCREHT
Protocol: as §1

[4] = biological target: T4, cloned human or rodent CNS receptors, channels, and transporters (PDSP panel) (Homo sapiens, UniProt P34969); test: PDSP GPCR panel primary binding assays at 10 μM; settings: primary assay
T4 construct: expressed in transfected cells
T4 sequence (P34969 whole entry): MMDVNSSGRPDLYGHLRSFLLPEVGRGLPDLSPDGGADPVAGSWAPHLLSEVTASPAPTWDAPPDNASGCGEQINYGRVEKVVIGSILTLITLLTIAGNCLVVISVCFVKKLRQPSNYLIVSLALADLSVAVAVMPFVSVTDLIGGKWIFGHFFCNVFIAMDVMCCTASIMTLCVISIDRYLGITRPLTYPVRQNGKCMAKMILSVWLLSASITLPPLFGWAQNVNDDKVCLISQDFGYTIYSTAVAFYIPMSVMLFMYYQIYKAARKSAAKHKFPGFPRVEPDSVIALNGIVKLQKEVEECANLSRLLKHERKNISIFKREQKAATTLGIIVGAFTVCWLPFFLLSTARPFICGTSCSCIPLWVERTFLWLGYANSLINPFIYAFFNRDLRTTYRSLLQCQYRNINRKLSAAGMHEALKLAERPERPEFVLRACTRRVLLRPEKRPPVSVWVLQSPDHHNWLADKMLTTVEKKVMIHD
Protocol: as §1

[5] = biological target: T5, cloned human or rodent CNS receptors, channels, and transporters (PDSP panel) (Homo sapiens, UniProt P20309); test: PDSP GPCR panel primary binding assays at 10 μM; settings: primary assay
T5 construct: expressed in transfected cells
T5 sequence (P20309 whole entry): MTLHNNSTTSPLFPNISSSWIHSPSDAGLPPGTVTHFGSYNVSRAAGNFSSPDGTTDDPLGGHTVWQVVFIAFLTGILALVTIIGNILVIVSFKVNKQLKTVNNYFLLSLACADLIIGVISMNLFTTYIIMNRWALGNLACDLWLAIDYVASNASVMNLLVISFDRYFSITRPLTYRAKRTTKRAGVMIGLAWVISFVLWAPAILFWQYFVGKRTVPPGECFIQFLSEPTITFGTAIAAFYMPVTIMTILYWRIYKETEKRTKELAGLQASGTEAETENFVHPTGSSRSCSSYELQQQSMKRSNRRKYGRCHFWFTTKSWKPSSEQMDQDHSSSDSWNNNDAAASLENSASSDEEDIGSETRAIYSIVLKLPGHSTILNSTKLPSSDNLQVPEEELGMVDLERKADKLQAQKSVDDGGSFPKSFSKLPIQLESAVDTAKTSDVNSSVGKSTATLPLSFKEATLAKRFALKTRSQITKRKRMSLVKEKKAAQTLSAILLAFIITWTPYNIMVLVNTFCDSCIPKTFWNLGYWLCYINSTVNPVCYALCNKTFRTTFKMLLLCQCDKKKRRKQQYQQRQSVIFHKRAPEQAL
Protocol: as §1

[6] = biological target: T6, cloned human or rodent CNS receptors, channels, and transporters (PDSP panel) (Homo sapiens, UniProt P35372); test: PDSP GPCR panel primary binding assays at 10 μM; settings: primary assay
T6 construct: expressed in transfected cells
T6 sequence (P35372 whole entry): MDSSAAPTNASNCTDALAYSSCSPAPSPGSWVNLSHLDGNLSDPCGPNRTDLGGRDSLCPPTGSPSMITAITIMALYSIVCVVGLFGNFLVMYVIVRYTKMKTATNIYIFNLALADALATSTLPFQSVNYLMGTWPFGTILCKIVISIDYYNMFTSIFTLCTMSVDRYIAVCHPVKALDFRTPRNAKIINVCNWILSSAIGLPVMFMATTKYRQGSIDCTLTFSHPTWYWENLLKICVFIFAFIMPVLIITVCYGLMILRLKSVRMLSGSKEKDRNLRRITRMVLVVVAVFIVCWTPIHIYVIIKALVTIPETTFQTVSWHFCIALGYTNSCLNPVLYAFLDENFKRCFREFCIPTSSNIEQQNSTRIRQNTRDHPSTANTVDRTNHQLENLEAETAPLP
Protocol: as §1

[7] = biological target: T7, cloned human or rodent CNS receptors, channels, and transporters (PDSP panel) (Homo sapiens, UniProt P35368); test: PDSP GPCR panel primary binding assays at 10 μM; settings: primary assay
T7 construct: expressed in transfected cells
T7 sequence (P35368 1-520): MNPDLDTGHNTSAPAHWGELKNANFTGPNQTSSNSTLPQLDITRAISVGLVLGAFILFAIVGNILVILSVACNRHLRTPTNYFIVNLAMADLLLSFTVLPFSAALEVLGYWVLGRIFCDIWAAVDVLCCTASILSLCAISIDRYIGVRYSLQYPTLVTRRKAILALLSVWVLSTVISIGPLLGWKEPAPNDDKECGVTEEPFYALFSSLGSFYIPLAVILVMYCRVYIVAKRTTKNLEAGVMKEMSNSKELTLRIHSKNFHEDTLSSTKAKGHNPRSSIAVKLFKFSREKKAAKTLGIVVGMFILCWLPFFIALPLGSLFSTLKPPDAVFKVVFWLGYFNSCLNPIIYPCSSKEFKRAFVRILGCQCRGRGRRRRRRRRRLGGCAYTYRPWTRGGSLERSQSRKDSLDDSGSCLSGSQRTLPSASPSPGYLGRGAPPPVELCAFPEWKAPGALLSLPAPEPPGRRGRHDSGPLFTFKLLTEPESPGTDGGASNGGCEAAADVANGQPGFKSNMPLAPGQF
Protocol: as §1

[8] = test system: cellular system; set-up: method as in column References for potency and dosing (the 5th table c13); settings: published data; References for potency and dosing; cited from earlier work

With `CCCCNc1ncc2c(-c3ccc(CN4CCN(C)CC4)cc3)cn([C@H]3CC[C@H](O)CC3)c2n1` [UNC2025C, UNC2025] the “Inhibition 1” value ([1]; Receptor Alpha1D, 10 μM) was 50.98%, the “Inhibition 2” value ([1]; Receptor Alpha1D, 10 μM) was 57.37% and the “Inhibition 3” value ([1]; Receptor Alpha1D, 10 μM) was 48.7%. The “Inhibition 4” value ([1]; Receptor Alpha1D, 10 μM) was 44.3%, the Mean % ([1]; Receptor Alpha1D, 10 μM, mean of Inhibition 1-4) was 50.34% and the “Inhibition 1” value ([2]; Receptor H2, 10 μM) was 36.84%. The “Inhibition 2” value ([2]; Receptor H2, 10 μM) was 35.2%, the “Inhibition 3” value ([2]; Receptor H2, 10 μM) was 22.04% and the “Inhibition 4” value ([2]; Receptor H2, 10 μM) was 12.62%. For the same molecule, the Mean % ([2]; Receptor H2, 10 μM, mean of Inhibition 1-4) was 26.68%, the “Inhibition 1” value ([3]; Receptor 5-HT1E, 10 μM) was 4.71% and the “Inhibition 2” value ([3]; Receptor 5-HT1E, 10 μM) was -8.74%. For the same molecule, the “Inhibition 3” value ([3]; Receptor 5-HT1E, 10 μM) was 0.13%, the “Inhibition 4” value ([3]; Receptor 5-HT1E, 10 μM) was -9.18% and the Mean % ([3]; Receptor 5-HT1E, 10 μM, mean of Inhibition 1-4) was -3.27%. The “Inhibition 1” value ([4]; Receptor 5-HT7A, 10 μM) was 13.62%, the “Inhibition 2” value ([4]; Receptor 5-HT7A, 10 μM) was -19.4% and the “Inhibition 3” value ([4]; Receptor 5-HT7A, 10 μM) was -17.29%. The “Inhibition 4” value ([4]; Receptor 5-HT7A, 10 μM) was -17.42%, the Mean % ([4]; Receptor 5-HT7A, 10 μM, mean of Inhibition 1-4) was -10.12% and the “Inhibition 1” value ([5]; Receptor M3, 10 μM) was -7.29%. For the same molecule, the “Inhibition 2” value ([5]; Receptor M3, 10 μM) was -5.9%, the “Inhibition 3” value ([5]; Receptor M3, 10 μM) was -6.87% and the “Inhibition 4” value ([5]; Receptor M3, 10 μM) was 2.81%. For the same molecule, the Mean % ([5]; Receptor M3, 10 μM, mean of Inhibition 1-4) was -4.31%, the “Inhibition 1” value ([6]; Receptor MOR, 10 μM) was 9.74% and the “Inhibition 2” value ([6]; Receptor MOR, 10 μM) was 12.91%. The “Inhibition 3” value ([6]; Receptor MOR, 10 μM) was 2.36%, the “Inhibition 4” value ([6]; Receptor MOR, 10 μM) was 6.67% and the Mean % ([6]; Receptor MOR, 10 μM, mean of Inhibition 1-4) was 7.92%. For the same molecule, the “Inhibition 1” value ([7]; Receptor Alpha1B, 10 μM) was 15.21%, the “Inhibition 2” value ([7]; Receptor Alpha1B, 10 μM) was -0.72% and the “Inhibition 3” value ([7]; Receptor Alpha1B, 10 μM) was -5.53%. The “Inhibition 4” value ([7]; Receptor Alpha1B, 10 μM) was -1.63%, the Mean % ([7]; Receptor Alpha1B, 10 μM, mean of Inhibition 1-4) was 1.83% and the “Reported as cell active (<10 μM)” value [8] was “Y (Published data supports that the compound is active in a cellular system when dosed at 10 μM (Y/N))”.
In the case of MDL 28170 [UNC10302675A], the Mean % ([1]; Alpha1D, mean inhibition) is reported as 0.92%, the “Inhibition 1” value ([1]; Alpha1D, replicate 1) is reported as 9.77% and the “Inhibition 2” value ([1]; Alpha1D, replicate 2) is reported as 7.35%. The “Inhibition 3” value ([1]; Alpha1D, replicate 3) was -4.01%, the “Inhibition 4” value ([1]; Alpha1D, replicate 4) was -9.41% and the Mean % ([2]; H2, mean inhibition) was -17.24%. The “Inhibition 1” value ([2]; H2, replicate 1) was -6.35%, the “Inhibition 2” value ([2]; H2, replicate 2) was -24.37% and the “Inhibition 3” value ([2]; H2, replicate 3) was -15.47%. The “Inhibition 4” value ([2]; H2, replicate 4) was -22.78%, the Mean % ([3]; 5-HT1E, mean inhibition) was -6.22% and the “Inhibition 1” value ([3]; 5-HT1E, replicate 1) was -3.13%. For the same molecule, the “Inhibition 2” value ([3]; 5-HT1E, replicate 2) was -5.37%, the “Inhibition 3” value ([3]; 5-HT1E, replicate 3) was -7.3% and the “Inhibition 4” value ([3]; 5-HT1E, replicate 4) was -9.09%. The Mean % ([4]; 5-HT7A, mean inhibition) was 12.48%, the “Inhibition 1” value ([4]; 5-HT7A, replicate 1) was 4.73% and the “Inhibition 2” value ([4]; 5-HT7A, replicate 2) was 10.46%. For the same molecule, the “Inhibition 3” value ([4]; 5-HT7A, replicate 3) was 19.29%, the “Inhibition 4” value ([4]; 5-HT7A, replicate 4) was 15.42% and the Mean % ([5]; M3, mean inhibition) was 3.62%. For the same molecule, the “Inhibition 1” value ([5]; M3, replicate 1) was 10.69%, the “Inhibition 2” value ([5]; M3, replicate 2) was 6.89% and the “Inhibition 3” value ([5]; M3, replicate 3) was 8.89%. The “Inhibition 4” value ([5]; M3, replicate 4) was -11.99%, the Mean % ([6]; MOR, mean inhibition) was -2.22% and the “Inhibition 1” value ([6]; MOR, replicate 1) was 0.73%. The “Inhibition 2” value ([6]; MOR, replicate 2) was -3.1%, the “Inhibition 3” value ([6]; MOR, replicate 3) was -4.83% and the “Inhibition 4” value ([6]; MOR, replicate 4) was -1.67%. The Mean % ([7]; Alpha1B, mean inhibition) was -5.99%, the “Inhibition 1” value ([7]; Alpha1B, replicate 1) was -0.72% and the “Inhibition 2” value ([7]; Alpha1B, replicate 2) was -4.38%. For the same molecule, the “Inhibition 3” value ([7]; Alpha1B, replicate 3) was -14.01%, the “Inhibition 4” value ([7]; Alpha1B, replicate 4) was -4.84% and the “Reported as cell active (<10 μM)” value [8] was “Y (Published data supports that the compound is active in a cellular system when dosed at 10 μM (Y/N))”.
